Test results published in patent US5840740A, “Aminosterol compounds and a method of treating infection using the aminosterol compounds” (priority 1995, dated 1998).
Entries after “also recorded” stand apart in the source; their conditions may differ.

Assays:
NHE1β = conditions: background, nucleated erythrocytes; cited from earlier work
[1] = Hematological profile in L1210-inoculated mice
Excerpt: C57B mice were inoculated with L1210 lymphoblastic leukemia cells at an inoculum that causes leukemia in 100% of animals.

[2] = test system: human microvascular cells; experiment: Inhibition of endothelial cell cord formation in vitro; type: cell-based; conditions: Homo sapiens, Endothelial cell; Table II; read-out: Cord Formation, Minimum Effective Concentration
Excerpt: Endothelial cells have the capacity in vitro to form tubular aggregates resembling capillaries in various early stages of formation. This conversion occurs under relatively specific conditions, in which essential growth factors along with an effective substratum are provided. It has been shown that both the interaction of growth factors with the endothelial cell and its attachment to a substratum activate the NHE. The activation of this exchanger is believed to be required for subsequent morphologic transformation of the endothelial cell into a multicellular tubular structure.
To assess the effect of compounds on the cord-like structures formed by human microvascular cells when plated in the presence of VEFG (Vascular Endothelial Growth Factor) and basic fibroblast growth factor on a collagen matrix, a standard cord formation assay was used.

[3] = test system: chick embryo vitelline capillaries; experiment: Chick embryo vitelline capillary regression assay; type: in vivo; design: key to vascular reactivity (capillary regression): +: Vascular reactivity; 0: No vascular reactivity; +/-: Equivocal reactivity; conditions: for vascular reactivity (capillary regression): 60 min; for Chick embryo diss. assay, Minimum Effective Concentration: Table II; for effect on chick embryo vessels / blood: in words
Procedure: Using the chick embryo vitelline capillaries assay, compounds were tested for their ability to induce capillary regression. Each compound was applied in 0.1 ml of 15% Ficol 400 and PBS onto the embryo, and vascular regression was assessed after 60 minutes.
The 3-day chick embryo consists of an embryonic disc from which numerous vessels emerge and return, forming a "figure 8"-shaped structure--the embryo in the center with vascular loops extending outward over both poles. […] Following a lag period of around 15 minutes, the constriction of continuity between capillary and secondary vessels, generally on the "avenous" side, was observed. Continued pulsatile blood flow progressed, resulting in a "swelling" of the blind tube, followed by a pinching off of the remaining connection and formation of an enclosed vascular sac resembling a "blood island." This process progressed until only the largest vessels remained intact.

B16 melanoma = B16 melanoma growth in C57B mice; type: in vivo, mouse; conditions: compound 319, text subcutaneous, FIG. 6 legend intraperitoneal
Procedure: The growth of B16 melanoma in C57B mice is dependent upon neovascularization.
Using the growth of B16 melanoma cells in C57B mice, a recognized model for the evaluation of inhibitors of angiogenesis on the growth of cancers, the effects of subcutaneous, intraperitoneal and oral administration of squalamine were evaluated.
In this model, there was observed little evidence of metastasis with or without treatment with chemotherapeutic agents.
Based on the idea that tumor growth involves both the clonal expansion of a malignant cell along with the development of a supporting vascular supply, a combination of compound 1436 with squalamine was tested to determine whether it would achieve a synergistic effect on solid tumor growth. This concept was evaluated in the B16 melanoma model.
Animals were implanted with B16 melanoma followed by treatment with compound 1436 or 1256 administered in a combined schedule or separately. […] Thus, a combination of these two compounds achieves a therapeutic benefit in tumors dependent on neovascularization that may prevent metastatic spread.

Xenopus tadpole = conditions: stage 59-60, 10 μg/ml; in words
human melanoma = experiment: Growth of human melanoma cells over time / cell death; type: cell-based
[4] = test system: Human ovarian carcinoma SKOV3; experiment: Growth inhibition in vitro; type: cell-based; conditions: in words
Excerpt: As set forth in Table 7 below, all malignant tumors evaluated in tissue culture, endothelial cells and vascular smooth muscle cells were sensitive to inhibition. Thus, compound 1436 has application in the control of growth factor dependent proliferation of many types of tissue.

[5] = Fasting blood glucose in mice; type: in vivo, mouse (male CD-1); conditions: mouse, in vivo, iv
Procedure: To study the effect of steroid administrator or the NHE responsible for secretion of insulin, several of the aminosterols from shark liver were administered to fasting mice. Male CD-1 mice were assigned to one of four treatment groups. Whole blood glucose was tested using glucometer (Lifescan Glucometer II and One Touch test strips). Statistical analysis was via one-way analysis of variance (ANOVA) followed by subsequent Bonferonni's t-test.

[6] = L1210 mice, cisplatin 8 mg/kg ip or compound 1436 10 mg/kg ip q4d

N=C(N)NC(=O)c1nc(Cl)c(N)nc1N [Amiloride]
inhibition of NHE1β (NHE1β): inhibited by high concentrations of amiloride

N.N.[Cl][Pt][Cl] [Cisplatin]
RBC, Early Time [1, 6]: 9.4 10^6 /mm^3 | RBC, Late Time [1, 6]: 1.5 10^6 /mm^3 | WBC, Early Time [1, 6]: 8.1 10^3 /mm^3 | WBC, Late Time [1, 6]: 18.1 10^3 /mm^3 | hematological profile ([1]; in words): profound anemia by day 28

C[C@H](CCC(=O)O)[C@H]1CC[C@H]2[C@@H]3CC[C@H]4C[C@@H](NCCCNCCCCN)CC[C@]4(C)[C@H]3CC[C@]12C [Compound 319]
minimal effective concentration [2]: 13.8 µg/mL | vascular reactivity (capillary regression) ([3]; 0.001 μg applied): +/- | vascular reactivity (capillary regression) ([3]; 0.01 μg applied): + | vascular reactivity (capillary regression) ([3]; 0.1 μg applied): + | vascular reactivity (capillary regression) ([3]; 1 μg applied): + | vascular reactivity (capillary regression) ([3]; 10 μg applied): + | Chick embryo diss. assay, Minimum Effective Concentration [3]: 0.001 µg | effect on chick embryo vessels / blood [3]: especially active | suppression of B16 melanoma tumor growth (B16 melanoma): achieved control of B16 in C57B mice to an extent almost comparable to squalamine | suppression of B16 melanoma tumor growth (B16 melanoma; listed as compound 319): suppression of murine melanoma in mice | pharmacological response in tadpole (Xenopus tadpole): common vascular occlusive effect

CC(C)CCC[C@@H](C)[C@H]1CC[C@H]2[C@@H]3CC[C@H]4C[C@@H](NCCCNCCCCNCCCN)CC[C@]4(C)[C@H]3CC[C@]12C [Compound 353]
vascular reactivity (capillary regression) ([3]; 1 μg applied): +/- | Chick embryo diss. assay, Minimum Effective Concentration [3]: > 1 µg | effect on chick embryo vessels / blood [3]: no effect on the chick embryo capillary bed | effect on growth of melanoma (human melanoma; 48 hours vs first 12 hours): most pronounced over 48 hours, with less of an effect noted within the first 12 hours of incubation | mode of cell death / activity against melanoma (human melanoma; in words): potent activity against melanoma and a number of cancer cells; also recorded: apoptotic cell death has been induced | pharmacological response in tadpole (Xenopus tadpole): effects like those produced by compound 1436

COC(=O)CC[C@@H](C)[C@H]1CC[C@H]2[C@@H]3CC[C@H]4C[C@H](NCCCNCCCCNCCCN)CC[C@]4(C)[C@H]3CC[C@]12C [Compound 458]
Chick embryo diss. assay, Minimum Effective Concentration [3]: > 1 µg | pharmacological response in tadpole (Xenopus tadpole): pharmacologic activity similar to that seen for FX 3

COC(=O)CC[C@@H](C)[C@H]1CC[C@H]2[C@@H]3CC[C@H]4C[C@@H](NCCCNCCCCNCCCN)CC[C@]4(C)[C@H]3CC[C@]12C [Compound 459]
Chick embryo diss. assay, Minimum Effective Concentration [3]: > 1 µg | pharmacological response in tadpole (Xenopus tadpole): pharmacologic activity similar to that seen for FX 3

COC(=O)CC[C@@H](C)[C@H]1CC[C@H]2[C@@H]3C[C@@H](O)[C@H]4C[C@@H](NCCCNCCCCNCCCN)CC[C@]4(C)[C@H]3CC[C@]12C [Compound 466]
Chick embryo diss. assay, Minimum Effective Concentration [3]: 1 µg | pharmacological response in tadpole (Xenopus tadpole): pharmacologic activity similar to that seen for FX 3

CC(C)C(CO)(CC[C@@H](C)[C@H]1CC[C@H]2[C@@H]3[C@H](O)C[C@H]4C[C@@H](NCCCNCCCCN)CC[C@]4(C)[C@H]3CC[C@]12C)OS(=O)(=O)O (some centres unmarked) [Compound 1437]
Chick embryo diss. assay, Minimum Effective Concentration [3]: > 1 µg | anticancer activity [4]: anticancer activity against the human ovarian carcinoma, SKOV3 | hyperglycemia [5]: caused hyperglycemia in mice
